Here are results for two molecules from US8822645B2, “Prostaglandin E2 dual variable domain immunoglobulins and uses thereof” (AbbVie Inc., priority 2008, dated 2014).

Data set [1] has as its system C57.BL/6 mice, carrageenan-induced footpad edema. The data set can be described thus: Carrageenan-induced footpad edema model. The settings on record: 3 mg/kg, p.o. It counts as in vivo, mouse. The method, then:
Carrageenan-Induced Footpad Edema is an acute rodent model of innate immune function. Intradermal (ID) injection of an inflammatory agent causes a rapid influx of neutrophils and fluid edema, which peaks at approximately 4 hours, followed by an influx of macrophages and monocytes, which peaks at approximately 48 hours. C57.BL/6 mice (8-10-week-old, Jackson Laboratories, Bar Harbor, Me.) were injected ID in the rear footpad with 30 μL of either PBS (left) or λ-carrageenen (Sigma Aldrich, St. Louis, Mo.) in PBS (right) at a concentration of 5.0 mg/mL (150 μg/mouse). […] Significant difference for paw thickness was determined by comparing mean paw swelling for each treatment group to vehicle in a Student's two-tailed t-test.
The endpoint measured was the difference in paw swelling (edema) between right and left paws 4 hours after treatment.

The test system of data set [2] is human TNFα transgenic B6.Cg(SJL)-Tg(TNF) N21+ mice. The data set can be described thus: Human TNFα transgenic induced arthritis model. The class given is in vivo, mouse. The note with it: 30 mg/kg. The method, then:
Human TNFα transgenic B6.Cg(SJL)-Tg(TNF) N21+ mice (40 male and 40 females) (Taconic, Hudson, N.Y.) at 4 weeks age were divided into 10 groups of 8 mice (4 male and 4 females/group). Each week, starting from week 5 until week 12 of age the morphology of the rear ankle joints of the mice were evaluated and scored for signs and symptoms of arthritis. Arthritic scores were assigned as follows. • 0=no arthritis (normal appearance and flexion) • 1=mild arthritis (joint distortion) • 2=moderate arthritis (swelling, joint deformation); and • 3=severe arthritis (ankylosis detected on flexion and severely impaired movement)
Animals were randomized to achieve approximately similar mean arthritic score (MAS) for all groups at week 9 at first signs of symptoms. Animals were then treated i.p. twice a week starting from week 10 of age until week 12 of age. Mice in group 1 served as untreated control were administered PBS.

The nature of another data set: Dynamic light scattering. The settings on record: 2 mg/mL in PBS. The class given is physicochemical. The method, then:
Samples were centrifuged at 10,000 RPM for 10 minutes before measured on DynaPro-801 Dynamic light scattering system.

For data set [3], the target named is T1, human TNFα (Homo sapiens, UniProt P01375). The data set can be described thus: BIAcore assay, TNFα binding kinetics and affinity. The method, then: The BIACORE assay (BIAcore, Inc, Piscataway, N.J.) determines the affinity of antibodies or DVD-Ig with kinetic measurements of on-rate and off-rate constants. Binding of antibodies or DVD-Ig to a target antigen (for example, a purified recombinant target antigen) is determined by surface plasmon resonance-based measurements with a BIAcore® 3000 instrument (BIAcore® AB, Uppsala, Sweden) using running HBS-EP (10 mM HEPES [pH 7.4], 150 mM NaCl, 3 mM EDTA, and 0.005% surfactant P20) at 25° C. All chemicals are obtained from BIAcore® AB (Uppsala, Sweden) or otherwise from a different source as described in the text. […] The association and dissociation rate constants, kon (M^−1 s^−1) and koff (s^−1) are determined under a continuous flow rate of 25 μl/min. […] The equilibrium dissociation constant (M) of the reaction between antibodies or DVD-Igs and the target antigen is then calculated from the kinetic rate constants by the following formula: KD=koff/kon. Binding is recorded as a function of time and kinetic rate constants are calculated. In this assay, on-rates as fast as 10^6M^−1 s^−1 and off-rates as slow as 10^−6 s^−1 can be measured. […]
T1 sequence (P01375 77-233 limits assumed): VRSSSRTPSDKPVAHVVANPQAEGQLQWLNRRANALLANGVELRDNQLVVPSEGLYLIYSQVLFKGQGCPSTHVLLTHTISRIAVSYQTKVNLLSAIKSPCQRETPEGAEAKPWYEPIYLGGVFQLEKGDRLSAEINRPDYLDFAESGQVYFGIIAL

Data set [4] concerns the target T1, human TNFα. The data set can be described thus: L929 assay (TNFα induced death of L929 cells). The class given is cell-based, mouse. The settings on record: read-out: TNFα Cellular Potency IC50.

As to `COc1ccc2c(c1)c(CC(=O)O)c(C)n2C(=O)c1ccc(Cl)cc1` [Indomethacin, reference compound], the “% Inhibition” value in data set [1] is 57 ± 3.5%. For the same molecule, the “Δ Paw Swelling” value in data set [1] (4 hours post carrageenan) is recorded as 0.486 ± 0.03 mm.
With “D2E7: human anti-TNFα monoclonal antibody, parent of the DVD-Igs [reference compound]”, the “maximal efficacy (inhibition of AUC of the mean arthritis score)” value in data set [2] is listed as 59%. For the same molecule, the hydrodynamic radius in “Dynamic light scattering” turned out to be 5.46 nm. The dissociation constant (Kd) with human TNFα [3] worked out at 0.027 nM. In the data set with human TNFα [4], the half-maximal inhibitory concentration (IC50) was found to be 0.041 nM.
